The nature of series [1]: pH-dependent solubility of the therapeutic compound. The format is physicochemical. The conditions noted are these: pH higher than 3.
Series [2] can be described thus: 2-Step Dissolution Test (pH 2 then pH 6.8). Format: physicochemical. The conditions noted are these: pH 6.8, second step; FIG. 2. As for the experimental part:
Capsules containing either Compound A alone, Formulation Variant 1 or Variant 2 are placed in 900 mL of pH 2 HCl and then stirred in a USP Apparatus II rotating at 50 rpm for 10 to 100 minutes (with fast stir from about minute 60 to minute 90). At approximately the 100 minute time point, this medium is adjusted to pH 6.8 and to a volume of 1000 ml and then stirred in a USP Apparatus II rotating at 50 rpm. Samples are filtered using a 100 μm Varian full flow filter and analyzed by UV.
Capsules containing either Compound A alone, Formulation Variants 1 or 2 are separately evaluated using a 2-Step Dissolution Test. This analysis compared the dissolution profile of capsules containing 68.5 mg per unit of 2-methyl-2-[4-(3-methyl-2-oxo-8-quinolin-3-yl-2,3-dihydro-imidazo[4,5-c]quinolin-1-yl)-phenyl]-propionitrile monotosylate salt (which is equivalent to 50 mg of the free base of 2-methyl-2-[4-(3-methyl-2-oxo-8-quinolin-3-yl-2,3-dihydro-imidazo[4,5-c]quinolin-1-yl)-phenyl]-propionitrile) at pH 2 and pH 6.8.
For this analysis, capsules containing either Compound A alone, Formulation Variant 1 or Variant 2 are placed in 900 mL of pH 2 HCl and then stirred in a USP Apparatus II rotating at 50 rpm for 10-100 minutes (with fast stir from about minute 60 to minute 90). […] Samples are filtered using a 100 μm Varian Full Flow filter and analyzed by HPLC.

The nature of series [3]: permeability of the therapeutic compound. Format: in vitro ADME.

As to `Cn1c(=O)n(-c2ccc(C(C)(C)C#N)cc2)c2c3cc(-c4cnc5ccccc5c4)ccc3ncc21` [Compound A, 2-methyl-2-[4-(3-methyl-2-oxo-8-quinolin-3-yl-2,3-dihydro-imidazo[4,5-c]quinolin-1-yl)-phenyl]-propionitrile], the solubility entry in series [1] is on record as “approximately 0%”. Moreover, the drug release entry in series [2] is on record as “approximately 0%”. Further, the permeability result in series [3] is on record as “low”.

Source of the values: patent US20130245061A1, “PHARMACEUTICAL COMPOSITIONS” (NOVARTIS AG, priority 2010, published 2013).
